# From US8772227B2, “Glucosamine pro-drug” (priority 2011, dated 2014)
# Experiments:
# [1] = Chemical stability (60° C. oven for 48 h); assay type: physicochemical; conditions: 60° C. for 48 h; <96% considered unstable
# Experimental: Compounds were transferred into transparent glass vials and placed in 60° C. oven for 48 h. Compound with <96% stability are considered unstable.
# [2] = Stability in the gut (incubation with homogenized rat stomach or intestine); assay type: in vitro ADME; conditions: incubated with homogenized rat stomach (pH 1.0) or intestine (pH 7.4); read-out: t1/2 of decomposition in the presence of rat gut
# Experimental: (§1) Pro-drugs were incubated for 2 h with homogenized rat stomach or intestine while the pH is kept at 1.0 or 7.4, respectively. Samples are taken at 30 min interval for the analysis of the pro-drug and GlcN. This procedure was used as a prerequisite to further tests described in Examples 6, 7 and 8. A compound with low stability under this condition was decided to be unsuitable for further test. […] Everted rat gut sacks are immersed in 80 μg/mL (GlcN equivalent) of GlucN HCl or GV-GluN HCl solution. The appearance of glucosamine each compound inside the sack (serosal) was measured. […] Gly-Val-COO-GlcN is GV-GlycN.
# [3] = Absorption through everted rat gut; assay type: in vitro ADME
# Experimental: as §1
# A mid line incision was made in the anesthetised rat abdomen, the intestine was exposed and five 10 cm segments of the jejunum are cut. In ice cold Krebs Henseleit buffer, the intestinal content are removed and each segment are everted over a glass rod, tied from one side, a polyethylene tube is inserted into the other side and tied. The segments are filled with buffer and incubated in a perfusion apparatus containing oxygenated Krebs Henseleit buffer at 37° C. The test compound was added to the mucosal (outer surface of the everted gut) and serial samples were collected from both sides. The percent of the movement from outside (mucosal) to inside (serosal) was measured and compared (FIG. 4). […]
# [4] = Bioavailability in the rat (plasma GlcN AUC after oral dose); assay type: in vivo
# Experimental: Prodrugs or GlcN HCl or sulphate were administered to rats in single oral doses equivalent to a fix amount of GlcN. Plasma GlcN concentrations were measured using HPLC in serial sample collected over a period of time. The areas under plasma-concentration-time curves (AUC or relative bioavailability) were calculated and compared (FIGS. 5 and 5a).
# [5] = test system: adjuvant arthritis caused by Mycobacterium butyricum; assay: Efficacy against adjuvant arthritis; assay type: in vivo; conditions: for preventing effect on emergence of adjuvant arthritis: daily doses from day 0, GlcN HCl 90 mg, GV-GlcN 30 mg glucosamine equivalent, FIG. 6; for paw thickness after treatment of established adjuvant arthritis: four days of daily doses from day 14, GlcN 90 mg/kg, GV-GlcN 30 mg/kg GlcN equivalent, FIG. 7
# Experimental: Under anesthesia, rats were injected with 0.2 ml of 50 mg/ml Mycobacterium butyricum suspended in squalene in the base of the tail (day 0). Their paw thickness was measure daily. Within 12-14 days significant increases in paw thickness were noticed, indicative of the emergence if adjuvant arthritis. Repeated daily doses of drugs were administered either right after the time of Mycobacterium injection (to prevent emergence of arthritis) or after the appearance of arthritis (to treat arthritis). Animals were monitored for their arthritis status during the entire length of the experiment.
# On day zero, Mycobacterium butyricum is injected to all rats along with daily doses of glucosamine, GV-GlnN or placebo. The placebo group develops severe AA but not the ones that received either treatment. Upon discontinuation of the treatments, AA emerges (FIG. 6).
# [6] = oral administration, reference (23); cited from earlier work
Compound,physicochemical stability (percent stable) [1] [%],half-life [2] [h],"stability after exposure to the gut (no conversion into glucosamine) ([3]; 60 minutes exposure, FIG. 4)",transport across everted rat gut ([3]; mucosal to serosal) [%],"area under the plasma glucosamine concentration-time curve compared with GlcN ([4]; 110 mg/kg (GlcN equivalent), FIG. 5A, n=3-5/group)","mean AUC (bioavailability) of GlcN in rat plasma compared with GlcN HCl ([4]; oral, 110 mg GlcN equivalent, FIG. 5, AUC(0-4))",preventing effect on emergence of adjuvant arthritis [5],paw thickness after treatment of established adjuvant arthritis [5],paw thickness after treatment of established adjuvant arthritis ([5]; listed as GV-GluN),AUC of GlcN after oral HCl versus sulphate salt [6],paw thickness after treatment of established adjuvant arthritis ([5]; listed as GlcN HCl)
"CC(C)C(NC(=O)CN)C(=O)OCC1OC(O)C(N)C(O)C1O (stereo not shown) [GV-GlcN, (5-amino-3,4,6-trihydroxyoxan-2-yl)methyl 2-(2-aminoacetamido)-3-methylbutanoate]",> 96,> 16,greater than 96%,~80,significantly greater than GlcN,significantly and substantially greater,prevent the disease,significantly reduce the paw thickness,Significant (p>0.05) reduced paw thickness,–,–
N[C@H]1C(O)O[C@H](CO)[C@@H](O)[C@@H]1O.N[C@H]1C(O)O[C@H](CO)[C@@H](O)[C@@H]1O.O=S(=O)(O)O (stereo partly shown) [GlcN sulfate],–,–,–,–,–,–,–,–,–,equal AUC values,–
"N[C@H]1C(O)O[C@H](CO)[C@@H](O)[C@@H]1O (stereo partly shown) [GlcN, Glucosamine]",–,–,–,–,–,–,prevent the disease,significantly reduce the paw thickness,–,–,Significant (p>0.05) reduced paw thickness
